According to article PMC8380238, “Structure-based virtual screening of CYP1A1 inhibitors: towards rapid tier-one assessment of potential developmental toxicants” (Archives of Toxicology, 2021):
Where two headings read alike, the source gives them in different places.

Columns and labels:
[1] = system: human CYP1A1; settings: cited from earlier work
[2] = biological target: T1, human recombinant CYP1A1 (rCYP1A1) (Homo sapiens, UniProt P04798); settings: recombinant enzyme
T1 sequence (P04798 1-512): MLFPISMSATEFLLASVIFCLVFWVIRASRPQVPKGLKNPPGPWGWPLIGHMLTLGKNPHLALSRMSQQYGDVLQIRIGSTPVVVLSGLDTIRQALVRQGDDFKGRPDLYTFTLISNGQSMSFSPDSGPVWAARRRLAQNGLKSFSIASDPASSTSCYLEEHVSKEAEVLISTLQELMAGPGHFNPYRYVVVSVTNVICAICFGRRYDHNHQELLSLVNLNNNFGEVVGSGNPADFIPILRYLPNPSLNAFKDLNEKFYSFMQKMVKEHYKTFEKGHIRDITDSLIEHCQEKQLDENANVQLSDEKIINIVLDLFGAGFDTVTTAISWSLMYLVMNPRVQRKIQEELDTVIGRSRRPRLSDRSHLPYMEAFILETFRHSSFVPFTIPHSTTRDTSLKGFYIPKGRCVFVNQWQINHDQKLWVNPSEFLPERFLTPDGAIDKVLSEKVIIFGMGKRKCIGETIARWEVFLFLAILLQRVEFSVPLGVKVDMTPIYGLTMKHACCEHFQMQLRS

[3] = biological target: T1, human recombinant CYP1A1 (rCYP1A1); assay: CYP1A1 activity assay: inhibition of CEC metabolism (IC50)
[4] = system: CYP1A1; settings: cited from earlier work
[5] = biological target: T1, human recombinant CYP1A1 (rCYP1A1)
[6] = biological target: T1, human recombinant CYP1A1 (rCYP1A1); assay: CYP1A1 activity assay repeated at six CEC concentrations (Ki, α, mode of inhibition)
[7] = system: CYP1A1; settings: cited from earlier work; remark: listed apart in the source
[8] = CYP1A1 IC50 (range of colour key, Fig. 5a)
[9] = CYP1A1 Ki (range of colour key, Fig. 5b)

SMILES: O=c1ccc2nc3ccc(OCc4ccccc4)cc3oc-2c1 [BzRes, resorufin benzyl ether]
- activity of human CYP1A1 on the fluorometric substrate ([1]; ref Stresser et al. [2002]): 0.457 pmol/min/pmol CYP1A1

SMILES: CCOc1ccc2cc(C#N)c(=O)oc2c1 [CEC, 3-cyano-7-ethoxycoumarin]
- activity of human CYP1A1 on the fluorometric substrate [1]: 40.2 pmol/min/pmol CYP1A1

SMILES: O=P1(N(CCCl)CCCl)NCCCO1 (stereo not shown) [Cyclophosphamide, reference compound]
- IC50 [2]: ∞
- IC50 [3, 8]: ≥ 1000 µM

SMILES: CCCCc1oc2ccccc2c1C(=O)c1cc(I)c(OCCNCC)c(I)c1 [DEA, desethylamiodarone]
- Ki [4]: 1.5 µM
- α [4]: 5.7

SMILES: CCCCOC(=O)c1ccccc1C(=O)OCCCC [Dibutyl phthalate]
- MOI (mode of inhibition) [5]: Competitive
- IC50 [3, 8]: 10 to 100 µM
- IC50 ([3]; IC50): 10 µM
- α (degree to which the binding of inhibitor changes the affinity of the enzyme for substrate) [6]: 13
- Ki [6, 9]: 1 to 10 µM
- Ki ([6]; Ki): 1.6 µM

SMILES: CCOC(=O)c1ccccc1C(=O)OCC [Diethyl phthalate]
- MOI (mode of inhibition) [5]: Competitive
- IC50 [3, 8]: 10 to 100 µM
- IC50 ([3]; IC50): 38 µM
- Ki [6, 9]: 10 to 15 µM
- Ki ([6]; Ki): 10 µM

SMILES: C[C@]12CC[C@@H]3c4ccc(O)cc4CC[C@H]3[C@@H]1CC[C@@H]2O [Estradiol, reference compound]
- CYP1A1 substrate category [7]: strong
- MOI (mode of inhibition) [5]: Competitive
- IC50 [3, 8]: 10 to 100 µM
- IC50 ([3]; IC50): 43 µM
- α (degree to which the binding of inhibitor changes the affinity of the enzyme for substrate) [6]: 4.3
- Ki [6, 9]: 10 to 15 µM
- Ki ([6]; Ki): 13 µM

SMILES: C[C@]12CC[C@@H]3c4ccc(O)cc4CC[C@H]3[C@@H]1C[C@@H](O)[C@@H]2O [Estriol]
- IC50 [2]: ∞
- IC50 [3, 8]: ≥ 1000 µM

SMILES: CC(=O)N1CCN(c2ccc(OCC3COC(Cn4ccnc4)(c4ccc(Cl)cc4Cl)O3)cc2)CC1 (stereo not shown) [Ketoconazole, reference compound]
- MOI (mode of inhibition) [5]: Noncompetitive
- IC50 ([3]; IC50): 0.099 µM
- α (degree to which the binding of inhibitor changes the affinity of the enzyme for substrate) [6]: 0.68
- Ki ([6]; Ki): 0.11 µM

SMILES: COc1ccc2[nH]cc(CCNC(C)=O)c2c1 [Melatonin]
- CYP1A1 substrate category [7]: strong

SMILES: CC(=O)[C@H]1CC[C@H]2[C@@H]3CCC4=CC(=O)CC[C@]4(C)[C@H]3CC[C@]12C [Progesterone, reference compound]
- CYP1A1 substrate category [7]: weak
- MOI (mode of inhibition) [5]: Competitive
- IC50 [3, 8]: 10 to 100 µM
- IC50 ([3]; IC50): 41 µM
- α (degree to which the binding of inhibitor changes the affinity of the enzyme for substrate) [6]: 4.3
- Ki [6, 9]: 15 to 20 µM
- Ki ([6]; Ki): 20 µM

SMILES: CCCOC(=O)c1ccc(O)cc1 [Propyl paraben]
- MOI (mode of inhibition) [5]: Competitive
- IC50 [3, 8]: 10 to 100 µM
- IC50 ([3]; IC50): 39 µM
- α (degree to which the binding of inhibitor changes the affinity of the enzyme for substrate) [6]: 6.2
- Ki [6, 9]: 15 to 20 µM
- Ki ([6]; Ki): 17 µM

SMILES: C[C@]12CC[C@H]3[C@@H](CCC4=CC(=O)CC[C@@]43C)[C@@H]1CC[C@@H]2O [Testosterone]
- CYP1A1 substrate category [7]: weak

SMILES: C[C@H]1CCCC(=O)CCC/C=C/c2cc(O)cc(O)c2C(=O)O1 [Zearalenone]
- MOI (mode of inhibition) [5]: Mixed
- IC50 ([3]; IC50): 0.7 µM
- α (degree to which the binding of inhibitor changes the affinity of the enzyme for substrate) [6]: 3.5
- Ki ([6]; Ki): 0.66 µM

SMILES: C=CC(=C)CCC=C(C)C [β-Myrcene]
- MOI (mode of inhibition) [5]: Mixed
- IC50 [3, 8]: 10 to 100 µM
- IC50 ([3]; IC50): 52 µM
- α (degree to which the binding of inhibitor changes the affinity of the enzyme for substrate) [6]: 3.5
- Ki [6, 9]: 10 to 15 µM
- Ki ([6]; Ki): 11 µM
